Where no end group is shown, it is not given here.
Legend:
[1] = test system: isolated hemidiaphragm of the rat; experiment: Consumption of glucose in vitro, isolated rat hemidiaphragm; format: cell-based, Wistar albino male rats
Protocol: To follow this consumption, the isolated hemidiaphragm of the rat in vitro was used. The method employed is that described by Park et al. (Effect of insulin on free glucose content of rat diaphragm in vitro -- Amer. J. Physiol. 182 : 12 - 16, 1955). The hemidiaphragm derived from Wistar albino male rats each weighing 200 to 250 g was used. The rats were fed freely for 7 days and then starved for 24 hours. The solutions studied contained 2 mg/ml of glucose, 500 μU/ml of insulin. The compound (I) was introduced at 250 μg/ml. The consumption of glucose related to the weight of tissue in grams and per hour was under these conditions: […]

diabetic rats = experiment: Effect on glycemia in diabetic animals; format: in vivo; settings: glucose 0.5 g/kg; for course of glycemia after simultaneous injection with glucose: diabetic rats fasted 4 hours, octapeptide 2 μg/g
Protocol: In this test, the drop in glycemia was compared after the simultaneous injection of glucose, on the one hand, and, on the other hand, either of the octapeptide at the dosage of 2 μg (I), or of insulin, or again of both at once. In that latter case the dosage of octapeptide used was also 2μg/g. The tests were carried out on diabetic rats, kept fasting for 4 hours before the injection of glucose (at the dose of 0.5 g/kg of animal).

[2] = molecular target: glyceraldehyde 3-phosphate dehydrogenase (Homo sapiens, UniProt P04406); experiment: Enzymatic effect in vitro: lifting of somantine inhibition of glyceraldehyde 3-phosphate dehydrogenase; format: biochemical
Chain of glyceraldehyde 3-phosphate dehydrogenase (P04406 whole entry, species assumed): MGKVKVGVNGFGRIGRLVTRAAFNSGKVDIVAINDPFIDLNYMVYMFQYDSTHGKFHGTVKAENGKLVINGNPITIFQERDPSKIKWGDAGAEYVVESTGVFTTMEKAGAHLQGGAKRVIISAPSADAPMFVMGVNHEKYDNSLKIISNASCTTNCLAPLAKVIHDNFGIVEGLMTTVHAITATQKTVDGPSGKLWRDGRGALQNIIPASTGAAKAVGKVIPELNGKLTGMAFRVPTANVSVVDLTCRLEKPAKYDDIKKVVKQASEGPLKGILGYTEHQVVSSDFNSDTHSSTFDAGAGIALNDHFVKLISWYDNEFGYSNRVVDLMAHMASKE
Protocol: In this test, the compound (I) was tested for its ability to raise the inhibition of a somantine extracted from a plasma with respect to the action of glyceraldehyde 3-phosphate dehydrogenase.
To this end, the activity of the enzyme in the presence successively of somantine alone, of the compound (1) alone, and finally in the presence of somantine and of the compound (I), were measured.
In this test, the glyceraldehyde 3-phosphate dehydrogenase was used at a concentration of […], the somantine at 25 μg/ml, and the compound (I) at 50 μg/ml.
The method used for the measurements is that of Pihl and Lang (J. Biol. Chem 237 : 1356 - 1362, 1962).
The percentage of inhibition of the enzyme found under these conditions is as follows: […]

adult rabbits = experiment: Effect on the in vivo effect of insulin: intravenous glucose tolerance in the rabbit
Protocol: The assays were carried out in the course of the tests carried out to determine the resistance to glucose injected by the intravenous route in the rabbit.
These tests were done on adult rabbits, which had been subjected to prior fasting for 24 hours. Blood was drawn off and the glucose level in the blood samples was determined. The measurement was carried out by the ferricyanide method as adapted for the "Technicon Autoanalyser" (J. Biol. Chem. 120 : 51 - 55, 1937). In this way the glucose level on fasting, then its variation after the intravenous injection of glucose, at the dose of 1 gram per kilo, was determined. These measurements were then renewed in rabbits which had received, 5 minutes after the glucose, an intravenous injection of the compound (1) (5μg/kg).

mice [3] = experiment: Influence on glycemia in mice after glucose injection; format: in vivo
Description: d. Influence of octapeptide (I) on glycemia has been determined in mice under conditions similar to those described for rabbits. The experiment included two series of tests aimed at studying the immediate effects and the prolonged effects.
In the first series of tests, a simultaneous injection of glucose and of the octapeptide (1) was made, and the lowering of glycemia with respect to that of control animals which had not received glucose, was followed as a function of time.
The injections were respectively of 0.25 g of glucose and 2 mg per kilo of body weight of the animal, namely about 40 μg, of octapeptide (I) or […].
In the second series of tests, the mice received the product before the injection of glucose. Three injections each of 40μg of octapeptide (1) were administered respectively 72, 48 and 24 hous before the injection of glucose.

[4] = test system: insulin receptors of lipid cells; experiment: Insulin binding to trypsinated lipid cells; format: cell-based; settings: octapeptide introduced into the medium; trypsinated cells alone no longer fix insulin
Description: In an attempt to elucidate the mechanism of action of the octapeptide (I) with respect to insulin, the phenomena were first studied at the level of the insulin receptors of lipid cells trypsinated to destroy said receptors.

hepatic cells = experiment: Insulin binding to hepatic cells; format: cell-based
Protocol: In the same way, the ratio of insulin binding to hepatic cells placed in a suitable reaction medium was measured. When the medium contains octapeptide (I), the ratio of insulin binding to the hepatic cells increases. The result is similar if the said cells are incubated with octapeptide (I).

[5] = test system: glucose receptors of the Langerhans islets; experiment: Glucose-stimulated insulin liberation from Langerhans islets of treated animals; format: cell-based; settings: islets removed one day or four days after injection of octapeptide; versus controls
Protocol: Finally, the effect of the octapeptide (I) on the glucose receptors of the Langerhans islets was determined. For this purpose, the octapeptide (I) was injected into animals.
One day or four days later, the animals were killed and the islets of Langerhans removed. The latter were placed in a reaction medium supplemented with glucose, and the amount of insulin liberated was determined and compared tocontrols.

mice [6] = experiment: Tolerance: acute and subacute toxicity study in mice; format: in vivo; settings: 1 month, daily dosages 5 to 10 times the active dosage
Protocol: An acute and subacute toxicity study was carried out on mice for 1 month, each mouse receiving daily dosages corresponding to 5 to 10 times the active dosage.

Row | Substance | Consumption of glucose ([1]; related to weight of tissue in grams and per hour, glucose 2 mg/ml, insulin 500 μU/ml, compound (I) 250 μg/ml) [mg] | course of glycemia after simultaneous injection with glucose (diabetic rats) | time after which glycemia rises again (diabetic rats; diabetic rats) | effect on the inhibiting effect of somantine (in words) ([2]; compound (I) 50 μg/ml together with somantine 25 μg/ml) | effect on the activity of the enzyme (in words) ([2]; compound (I) alone, 50 μg/ml) | inhibition at 50 µg/mL ([2]; enzyme 0.5 μml, somantine 25 μg/ml, compound (I) 50 μg/ml, read-out: percentage of inhibition of the enzyme) [%] | consumption of glucose in the presence of insulin (in words) ([1]; compound (I) 250 μg/ml added to glucose + insulin) | glucose level reached, compared with fasting level (adult rabbits; glucose 1 g/kg i.v., compound 5 μg/kg i.v.) | decrease in the glucose level after i.v. glucose (adult rabbits; glucose 1 g/kg i.v., compound 5 μg/kg i.v. 5 minutes after glucose, versus rabbits without compound) | persistence of effect on the carbohydrate metabolism after injection (adult rabbits; similar tests at intervals of several days) | drop in glycemia, immediate effect (mice [3]; simultaneous injection of glucose and about 40 μg octapeptide, versus controls) | drop in glycemia, prolonged effect (mice [3]; three injections of 40 μg at 72, 48 and 24 hours before glucose, versus controls receiving only glucose) | insulin binding to trypsinated lipid cells [4] | ratio of insulin binding to hepatic cells (hepatic cells; cells incubated with octapeptide (I)) | ratio of insulin binding to hepatic cells (hepatic cells; medium contains octapeptide (I)) | level of insulin liberated by Langerhans islets in glucose-supplemented medium [5] | toxic effect, macro and microscopic studies (mice [6])
1 | insulin: insulin, 500 μU/ml in glucose solution in the hemidiaphragm test | 4.10 ± 0.15 | decreases rapidly, stabilises, then rises again | about 120 minutes |  |  |  |  |  |  |  |  |  |  |  |  |  | 
2 | LSRLFDNA [compound (I), leucyl--seryl--arginyl--leucyl--phenylalanyl--aspartyl--asparaginyl-alanine] |  | practically unmodified |  | partly suppressed | practically without effect | 1 | increased | less than those which were measured in the fasting rabbits | greater | persists several days | distinctly more accentuated | more rapid drop in glycemia | the binking reasppears | similar | increases | very substantial increase | not shown any toxic effect

— patent US4107158A, “Process for making an octapeptide useful for the treatment of diabetes” (Choay S.A., priority 1974, dated 1978)
